# Measurements as given in article PMC12067145 (ACS Medicinal Chemistry Letters, 2025).
# How the values were obtained:
# [1] = biological target: Nav1.5 (Homo sapiens, UniProt Q14524); assay: Cardiac ion channel MPC selectivity panel; assay type: cell-based
# [2] = Liver microsome intrinsic clearance (human); assay type: in vitro ADME; conditions: pH 7.4; human liver microsomes; read-out: LMS CLINT human
# Procedure: After a 5 min preincubation, the reaction was initiated by the addition of NADPH (1 mM). At selected time intervals between 0 ~ 60 min (e.g. 0, 3, 7, 15, 25, 45 and/or 60 min), aliquots were taken and subsequently placed into a 96-well plate containing cold acetonitrile with an internal standard (50 ng/mL carbamazepine). Plates were then centrifuged at 3000 rcf (4 °C) for 10 min, and the supernatant was transferred to a separate 96-well plate and diluted 1:1 with water for LC/MS/MS analysis. The in vitro half-life (T 1/2, min, Eq. 1), intrinsic clearance (CLint, mL/min/kg, Eq. 2), and subsequent predicted hepatic clearance (CLhep, mL/min/kg, Eq. 3) were determined employing the following equations: […]
# where k represents the slope from linear regression analysis of the natural log percent remaining of a test compound as a function of incubation time […]
# (2) CLint = in vitroT1/2 x mg microsomes x gram liver x kg body wt ascale-up factors: of 20 (human) or 45 (rat) or 87.5 (mouse) […]
# where Qh (hepatic blood flow, mL/min/kg) is 21 (human) or 70 (rat) or 90 (mouse).
# LC/MS/MS Bioanalysis of Samples from Plasma Protein Binding and Intrinsic Clearance […]
# Samples were analyzed on a Thermo Electron TSQ Quantum Ultra triple quad mass spectrometer (San Jose, CA) via electrospray ionization (ESI) with two Themo Electron Accella pumps (San Jose, CA), and a Leap Technologies CTC PAL autosampler (Carrboro, NC). Analytes were separated by gradient elution on a dual column system with two Thermo Hypersil Gold (2.1 x 30 mm, 1.9 µm) columns (San Jose, CA) thermostated at 40 °C. HPLC mobile phase A was 0.1% formic acid in water and mobile phase B was 0.1% formic acid in acetonitrile. The gradient started […]
# for 0.2 min; returned to 10% B in 0.1 min. The total run time was 1.3 min and the HPLC flow rate was 0.8 mL/min. While pump 1 ran the gradient method, pump 2 equilibrated the alternate column isocratically at 10% B. Compound optimization, data collection, and processing were performed using Thermo Electron's QuickQuan software (v2.3) and Xcalibur (v2.0.7 SP1). […]
# [3] = biological target: KCNQ1 (Homo sapiens, UniProt P51787); assay: Cardiac ion channel MPC selectivity panel; assay type: cell-based
# [4] = test system: other K2P channels except TREK-2; assay: K2P channel selectivity (panel); assay type: cell-based
# From the text: Herein we describe our continuing work on the K2P family of potassium ion channels with the chemical optimization of a selective and CNS penetrant series of TREK inhibitors, culminating in the discovery of ONO-TR-772 (VU6018042).
# [5] = biological target: Kir2.2 (Homo sapiens, UniProt Q14500); assay: Cardiac ion channel MPC selectivity panel; assay type: cell-based
# [6] = biological target: Kv4.3 (Homo sapiens, UniProt Q9UK17); assay: Cardiac ion channel MPC selectivity panel; assay type: cell-based
# [7] = biological target: hERG (Homo sapiens, UniProt Q12809); assay: Cardiac ion channel MPC selectivity panel; assay type: cell-based
# Sequence of hERG (Q12809 whole entry): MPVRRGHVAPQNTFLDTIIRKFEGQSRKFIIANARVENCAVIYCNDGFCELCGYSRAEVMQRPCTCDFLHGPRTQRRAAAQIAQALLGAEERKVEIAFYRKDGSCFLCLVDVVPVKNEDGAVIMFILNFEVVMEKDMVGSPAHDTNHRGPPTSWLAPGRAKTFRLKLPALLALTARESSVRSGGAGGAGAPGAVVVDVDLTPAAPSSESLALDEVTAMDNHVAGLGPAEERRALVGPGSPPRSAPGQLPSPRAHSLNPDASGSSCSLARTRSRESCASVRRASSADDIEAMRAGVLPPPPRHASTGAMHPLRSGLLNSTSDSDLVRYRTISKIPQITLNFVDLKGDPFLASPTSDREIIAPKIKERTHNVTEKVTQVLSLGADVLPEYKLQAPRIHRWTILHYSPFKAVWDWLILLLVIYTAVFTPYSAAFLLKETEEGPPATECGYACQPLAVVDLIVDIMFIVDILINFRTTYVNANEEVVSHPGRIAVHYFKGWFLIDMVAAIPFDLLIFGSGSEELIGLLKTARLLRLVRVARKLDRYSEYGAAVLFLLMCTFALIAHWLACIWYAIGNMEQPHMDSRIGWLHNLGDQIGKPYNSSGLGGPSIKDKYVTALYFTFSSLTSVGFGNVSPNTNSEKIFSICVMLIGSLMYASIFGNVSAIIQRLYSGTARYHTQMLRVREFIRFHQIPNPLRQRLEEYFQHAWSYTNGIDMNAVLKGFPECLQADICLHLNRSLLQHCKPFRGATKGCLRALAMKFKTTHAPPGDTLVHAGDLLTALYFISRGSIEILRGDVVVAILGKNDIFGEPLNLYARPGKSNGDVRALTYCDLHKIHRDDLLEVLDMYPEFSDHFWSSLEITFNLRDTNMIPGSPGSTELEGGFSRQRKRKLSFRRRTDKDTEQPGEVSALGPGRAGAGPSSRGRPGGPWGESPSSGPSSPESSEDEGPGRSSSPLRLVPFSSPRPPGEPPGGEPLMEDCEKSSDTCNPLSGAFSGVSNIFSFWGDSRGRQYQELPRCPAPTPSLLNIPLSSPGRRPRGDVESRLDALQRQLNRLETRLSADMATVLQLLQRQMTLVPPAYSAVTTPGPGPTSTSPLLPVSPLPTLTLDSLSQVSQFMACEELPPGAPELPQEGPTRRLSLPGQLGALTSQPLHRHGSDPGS
# [8] = biological target: Adrenergic α1B (Rattus norvegicus, UniProt P15823); assay: Eurofins lead profiling screen (radioligand binding)
# Sequence of Adrenergic α1B (P15823 whole entry): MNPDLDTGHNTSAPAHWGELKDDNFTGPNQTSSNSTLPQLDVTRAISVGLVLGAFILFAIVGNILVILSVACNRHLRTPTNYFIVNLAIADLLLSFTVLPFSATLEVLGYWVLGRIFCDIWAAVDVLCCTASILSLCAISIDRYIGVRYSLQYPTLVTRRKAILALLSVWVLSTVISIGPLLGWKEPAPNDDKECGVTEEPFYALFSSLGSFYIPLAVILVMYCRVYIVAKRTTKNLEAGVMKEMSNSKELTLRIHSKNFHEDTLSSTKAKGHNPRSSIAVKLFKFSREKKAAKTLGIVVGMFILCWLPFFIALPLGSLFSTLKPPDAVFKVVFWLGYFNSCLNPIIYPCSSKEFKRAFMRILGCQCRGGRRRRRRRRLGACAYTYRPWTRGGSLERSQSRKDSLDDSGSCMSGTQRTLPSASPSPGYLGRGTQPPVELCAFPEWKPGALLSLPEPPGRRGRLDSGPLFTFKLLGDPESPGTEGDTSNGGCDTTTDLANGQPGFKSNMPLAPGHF
# [9] = biological target: Interleukin IL-1 R1 (Homo sapiens, UniProt P14778); assay: as above
# [10] = biological target: Transporter, Serotonin (SERT) (Homo sapiens, UniProt P31645); assay: as above
# [11] = biological target: Epidermal Growth Factor (EGF) (Homo sapiens, UniProt P00533); assay: as above
# [12] = test system: GABAA, Muscimol, Central; assay: as above; parameters: species or system Rat
# [13] = biological target: Neuropeptide Y Y1 (Homo sapiens, UniProt P25929); assay: as above
# Sequence of Neuropeptide Y Y1 (P25929 whole entry): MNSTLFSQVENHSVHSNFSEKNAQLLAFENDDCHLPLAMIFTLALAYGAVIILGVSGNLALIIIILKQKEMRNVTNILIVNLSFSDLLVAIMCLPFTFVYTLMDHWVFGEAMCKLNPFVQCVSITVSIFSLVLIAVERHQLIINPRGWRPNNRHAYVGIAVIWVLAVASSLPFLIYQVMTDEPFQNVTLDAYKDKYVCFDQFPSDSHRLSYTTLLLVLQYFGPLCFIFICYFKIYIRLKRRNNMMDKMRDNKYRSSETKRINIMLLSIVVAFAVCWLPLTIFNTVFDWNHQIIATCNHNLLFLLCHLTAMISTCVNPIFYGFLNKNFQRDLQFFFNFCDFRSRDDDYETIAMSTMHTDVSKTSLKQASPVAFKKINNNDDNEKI
# [14] = biological target: Histamine H2 (Homo sapiens, UniProt P25021); assay: as above
# Sequence of Histamine H2 (P25021 whole entry): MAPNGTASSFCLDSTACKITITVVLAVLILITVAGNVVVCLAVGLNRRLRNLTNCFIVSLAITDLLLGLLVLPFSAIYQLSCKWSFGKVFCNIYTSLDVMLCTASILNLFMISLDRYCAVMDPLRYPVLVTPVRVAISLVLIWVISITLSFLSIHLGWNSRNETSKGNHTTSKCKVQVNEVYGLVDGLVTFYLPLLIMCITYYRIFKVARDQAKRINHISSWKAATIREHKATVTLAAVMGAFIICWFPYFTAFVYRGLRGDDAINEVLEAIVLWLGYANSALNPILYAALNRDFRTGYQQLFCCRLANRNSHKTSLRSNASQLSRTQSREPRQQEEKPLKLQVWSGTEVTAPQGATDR
# [15] = biological target: GABAB1A (Homo sapiens, UniProt Q9UBS5); assay: as above
# [16] = biological target: Adrenergic β1 (Homo sapiens, UniProt P08588); assay: as above
# [17] = biological target: Potassium Channel [KATP] (Cricetus cricetus, UniProt Q09427); assay: as above; parameters: species or system Hamster
# [18] = biological target: Tachykinin NK1 (Homo sapiens, UniProt P25103); assay: as above
# [19] = biological target: Dopamine D2S (Homo sapiens, UniProt P14416); assay: as above
# [20] = biological target: Neuropeptide Y Y2 (Homo sapiens, UniProt P49146); assay: as above
# Sequence of Neuropeptide Y Y2 (P49146 whole entry): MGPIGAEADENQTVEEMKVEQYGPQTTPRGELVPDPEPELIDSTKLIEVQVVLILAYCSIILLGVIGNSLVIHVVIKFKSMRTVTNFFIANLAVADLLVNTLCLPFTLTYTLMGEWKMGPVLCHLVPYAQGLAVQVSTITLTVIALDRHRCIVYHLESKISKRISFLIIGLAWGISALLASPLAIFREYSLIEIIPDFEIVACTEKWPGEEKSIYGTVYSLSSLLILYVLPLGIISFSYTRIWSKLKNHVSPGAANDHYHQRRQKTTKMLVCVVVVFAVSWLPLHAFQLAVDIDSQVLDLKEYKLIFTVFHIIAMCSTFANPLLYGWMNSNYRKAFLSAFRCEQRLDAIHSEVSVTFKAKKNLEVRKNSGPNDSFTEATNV
# [21] = biological target: Muscarinic M3 (Homo sapiens, UniProt P20309); assay: as above
# [22] = biological target: hERG potassium channel (Homo sapiens, UniProt Q12809); assay: as above
# Sequence of hERG potassium channel (Q12809 whole entry): as the sequence (Q12809 whole entry) above
# [23] = biological target: Leukotriene, Cysteinyl CysLT1 (Homo sapiens, UniProt Q9Y271); assay: as above
# Sequence of Leukotriene, Cysteinyl CysLT1 (Q9Y271 whole entry): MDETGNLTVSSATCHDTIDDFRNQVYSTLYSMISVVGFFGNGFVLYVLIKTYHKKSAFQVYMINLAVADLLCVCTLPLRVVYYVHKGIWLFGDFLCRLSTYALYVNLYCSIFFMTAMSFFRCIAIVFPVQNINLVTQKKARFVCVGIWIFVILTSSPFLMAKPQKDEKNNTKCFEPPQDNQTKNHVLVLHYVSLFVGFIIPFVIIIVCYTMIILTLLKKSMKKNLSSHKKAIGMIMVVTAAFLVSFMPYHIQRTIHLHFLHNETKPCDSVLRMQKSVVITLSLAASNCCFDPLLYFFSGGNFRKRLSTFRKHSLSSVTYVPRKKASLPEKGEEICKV
# [24] = biological target: Histamine H1 (Homo sapiens, UniProt P35367); assay: as above
# Sequence of Histamine H1 (P35367 whole entry): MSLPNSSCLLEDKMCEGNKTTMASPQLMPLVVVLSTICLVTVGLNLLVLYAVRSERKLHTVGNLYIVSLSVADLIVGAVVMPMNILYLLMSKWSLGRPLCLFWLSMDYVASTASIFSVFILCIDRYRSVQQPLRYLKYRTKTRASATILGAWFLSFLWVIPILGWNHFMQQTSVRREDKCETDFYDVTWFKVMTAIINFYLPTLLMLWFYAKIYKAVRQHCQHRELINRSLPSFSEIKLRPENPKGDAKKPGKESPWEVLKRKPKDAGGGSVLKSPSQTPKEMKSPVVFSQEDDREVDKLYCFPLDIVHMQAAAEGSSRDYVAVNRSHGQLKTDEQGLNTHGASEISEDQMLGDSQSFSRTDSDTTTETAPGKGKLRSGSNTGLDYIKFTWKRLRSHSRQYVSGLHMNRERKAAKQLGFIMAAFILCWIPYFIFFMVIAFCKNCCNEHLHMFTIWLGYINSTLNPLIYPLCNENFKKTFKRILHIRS
# [25] = biological target: Glutamate, NMDA, Glycine (Rattus norvegicus, UniProt P35439); assay: as above
# [26] = biological target: Sigma σ1 (Homo sapiens, UniProt Q99720); assay: as above
# Sequence of Sigma σ1 (Q99720 whole entry): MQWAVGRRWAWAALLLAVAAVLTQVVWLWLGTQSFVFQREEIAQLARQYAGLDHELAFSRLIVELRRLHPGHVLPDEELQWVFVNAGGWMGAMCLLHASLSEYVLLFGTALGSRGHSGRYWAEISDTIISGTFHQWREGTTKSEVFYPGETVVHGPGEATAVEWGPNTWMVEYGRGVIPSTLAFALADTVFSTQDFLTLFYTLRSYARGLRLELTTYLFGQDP
# [27] = biological target: Serotonin (5-HT1A) (Homo sapiens, UniProt P08908); assay: as above
# [28] = biological target: Serotonin (5-HT2B) (Homo sapiens, UniProt P41595); assay: as above
# [29] = test system: Glutamate, NMDA, Phencyclidine; assay: as above; parameters: species or system Rat
structure (smiles),measurement,setting,value
Cc1cc(C#Cc2ccc(F)cc2)cnc1NC(=O)c1cc(NC(=O)OC(C)(C)C)ccc1Cl [Compound 14c],"% at 10 μM, Nav1.5",[1],< 50%
same,CLint scaled at 1 µM,[2],7.5 mL/min/kg
same,"% at 10 μM, KCNQ1",[3],< 50%
same,activity versus other K2P channels except TREK-2,[4],> 10 µM
same,"% at 10 μM, Kir2.2",[5],52%
same,"% at 10 μM, Kv4.3",[6],< 50%
same,"% at 10 μM, hERG",[7],< 50%
O=C(NCc1ccc(OC(F)(F)F)cc1F)c1ccc2ncnn2c1 [ONO-2920632],inhibition at 10 µM,[8],11%
same,inhibition at 10 µM,[9],-1%
same,inhibition at 10 µM,[10],-3%
same,inhibition at 10 µM,[11],-2%
same,% Inhibition at 10 µM,[12],2%
same,inhibition at 10 µM,[13],15%
same,inhibition at 10 µM,[14],-12%
same,inhibition at 10 µM,[15],0%
same,inhibition at 10 µM,[16],-1%
same,inhibition at 10 µM,[17],-6%
same,inhibition at 10 µM,[18],13%
same,inhibition at 10 µM,[19],-1%
same,inhibition at 10 µM,[20],6%
same,inhibition at 10 µM,[21],7%
same,inhibition at 10 µM,[22],39%
same,inhibition at 10 µM,[23],-7%
same,inhibition at 10 µM,[24],12%
same,inhibition at 10 µM,[25],-6%
same,inhibition at 10 µM,[26],30%
same,inhibition at 10 µM,[27],4%
same,inhibition at 10 µM,[28],31%
same,% Inhibition at 10 µM,[29],-15%
